The target of this test is T1, Recombinant human LTC4 synthase (Homo sapiens, UniProt Q16873).
T1 construct: made in house; host or cells: Pichia pastoris ('Piccia pastoralis' [sic])
T1 sequence (Q16873 1-150): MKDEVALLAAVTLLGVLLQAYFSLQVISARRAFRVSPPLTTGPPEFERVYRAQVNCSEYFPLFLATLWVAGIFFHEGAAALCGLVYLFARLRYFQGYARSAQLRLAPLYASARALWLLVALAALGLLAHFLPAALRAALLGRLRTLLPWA
The test can be described thus: LTC4 synthase in vitro assay (e.g. by HTRF detection). In kind it is biochemical. The procedure: In the assay, LTC4 synthase catalyses the reaction where the substrate LTA4 methyl ester is converted to the corresponding LTC4 methyl ester. Recombinant human LTC4 synthase is expressed in Piccia pastoralis and the purified enzyme is dissolved in 25 mM Tris-buffer pH 7.8 and stored at −80° C. The assay is performed in phosphate buffered saline (PBS) pH 7.4, supplemented with 5 mM glutathione (GSH). The reaction is terminated by addition of acetonitrile/MeOH/acetic acid (50/50/1). The assay is performed at rt in 96-well plates. Analysis of the formed LTC4 methyl ester is performed with reversed phase HPLC (Waters 2795 utilizing an Onyx Monolithic C18 column). The mobile phase consists of acetonitrile/MeOH/H2O (32.5/30/37.5) with 1% acetic acid pH adjusted with NH3 to pH 5.6, and absorbance measured at 280 nm with a Waters 2487 UV-detector.
The following is added chronologically to each well: • 1. 50 μl assay buffer, PBS with 5 mM GSH. • 2. 0.5 μl inhibitor in DMSO (final conc. 1 nM-10 μM). • 3. 2 μl LTC4 synthase in PBS. The total protein concentration in this solution is 0.025 mg/ml. Incubation of the plate at room temperature for 10 minutes. • 4. 1-1.5 μl LTA4 methyl ester (final conc. 10 μM). Incubation of the plate at rt for 1 min. • 5. 50 μl stop solution.
80 μl of the incubation mixture is analysed with HPLC.
Alternatively, HTRF detection can be used:
In the assay, LTC4 synthase catalyses the reaction where the substrate LTA4 is converted to LTC4. Recombinant human LTC4 synthase is expressed in Piccia pastoralis and the purified enzyme is dissolved in 25 mM tris-buffer pH 7.8 supplemented with 0.1 mM glutathione (GSH) and stored at −80° C. The assay is performed in phosphate buffered saline (PBS) pH 7.4 and 5 mM GSH in 384-well plates.
The following is added chronologically to each well:
1.48 μL LTC4 synthase in PBS with 5 mM GSH. The total protein concentration in this solution is 0.5 μg/mL.
2. 1 μL inhibitor in DMSO (final concentration 1 nM to 10 μM).
3. Incubation of the plate at room temperature for 10 min.
4. 1 μL LTA4 (final concentration 2.5 μM).
5. Incubation of the plate at room temperature for 5 min.
6. 10 μL of the incubation mixture is analysed using homogenous time resolved fluorescent (HTRF) detection.
Turning to `CCCCOc1ccc(S(=O)(=O)Nc2ccc(Oc3ccc(Nc4ccc(F)c(F)c4)cc3C(=O)O)cc2)cc1` [Example 1, 2-[4-(4-Butoxy-benzene-sulfonylamino)-phenoxy]-5-(3,4-difluoro-phenyl-amino)-benzoic acid], the IC50 was 243 nM. For `CCCCOc1ccc(S(=O)(=O)Nc2ccc(Oc3ccc(Nc4ccc(F)c(F)c4)cc3C(=O)O)cc2C(=O)O)cc1` [Example 3, 2-(4-Butoxy-benzene-sulfonylamino)-5-[2-carboxy-4-(3,4-difluoro-phenylamino)-phenoxy]-benzoic acid], the IC50 was determined as 1020 nM. Under `O=C(O)c1cc(Oc2ccc(Nc3ccc(F)c(F)c3)cc2C(=O)O)ccc1Nc1ccc(F)c(F)c1` [Example 4] stands 2030 nM; under `O=C(O)c1cc(Nc2ccc(F)c(F)c2)ccc1Oc1ccc(Nc2ccc(F)c(F)c2)cc1` [Example 2, 5-(3,4-Difluoro-phenylamino)-2-[4-(3,4-difluoro-phenylamino)-phenoxy]-benzoic acid], 1900 nM.

For orientation: IC50 means the midpoint of a concentration-inhibition curve.

The values are drawn from patent publication US20110112193A1 (priority 2008, published 2011).
